One experiment addresses T1, PDK1 kinase (Homo sapiens, UniProt O15530).
T1 sequence (O15530 1-556): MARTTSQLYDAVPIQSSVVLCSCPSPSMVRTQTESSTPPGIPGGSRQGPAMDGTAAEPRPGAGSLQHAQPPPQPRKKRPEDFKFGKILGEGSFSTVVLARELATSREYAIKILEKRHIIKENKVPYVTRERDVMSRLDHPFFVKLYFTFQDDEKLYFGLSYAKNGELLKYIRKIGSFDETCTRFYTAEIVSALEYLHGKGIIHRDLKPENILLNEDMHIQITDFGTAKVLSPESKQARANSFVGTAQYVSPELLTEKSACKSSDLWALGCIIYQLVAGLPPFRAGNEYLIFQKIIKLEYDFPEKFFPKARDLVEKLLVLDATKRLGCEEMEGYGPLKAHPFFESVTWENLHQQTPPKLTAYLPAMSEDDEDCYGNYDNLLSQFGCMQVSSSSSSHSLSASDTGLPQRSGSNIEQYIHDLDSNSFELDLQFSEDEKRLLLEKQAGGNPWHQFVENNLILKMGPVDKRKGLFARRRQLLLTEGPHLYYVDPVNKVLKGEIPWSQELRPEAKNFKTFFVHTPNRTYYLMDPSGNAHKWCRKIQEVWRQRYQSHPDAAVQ
Put plainly: PDK1 Kinase Alpha Screen Assay. The settings on record: read-out: PDK1 IC50. The class given is biochemical. The method, then:
1. PDK1 Kinase Alpha Screen Assay
Reagents/Concentrations: The PDK1-4 peptide substrate, biotin-[…]-NH2, was purchased from the Tufts University Core Facility. The final concentration of PDK1-4 peptide substrate was 50 nM The ATP substrate (Adenosine-5′-triphosphate) was purchased from Roche Diagnostics. The final concentration of ATP substrate was 10 uM. Phospho-(Ser/Thr) PKA substrate antibody was purchased from Cell Signaling Technology. The final concentration of antibody was 0.3 mg/ml. The Alpha Screen Protein A detection kit containing donor and acceptor beads was purchased from PerkinElmer Life Sciences. The final concentration of both donor and acceptor beads was 25 μg/ml. Alpha Screen was used for detection. The biotinylated-PDK1-4 peptide was phosphorylated by PDK1 kinase using the ATP substrate. The biotinylated-PDK1-4 peptide substrate was bound to the streptavidin coated donor bead. The antibody was bound to the protein A coated acceptor bead. The antibody bound to the phosphorylated form of the biotinylated PDK-1 peptide substrate, bringing the donor and acceptor beads into close proximity. Laser irradiation of the donor bead at 680 nm generated a flow of short-lived singlet oxygen molecules. When the donor and acceptor beads were in close proximity, the reactive oxygen generated by the irradiation of the donor beads initiated a luminescence/fluorescence cascade in the acceptor beads. This process led to a highly amplified signal with output in the 530-620 nm range. Assays were carried out in 50 mM Tris, pH=7.5, 10 mM MgCl2, 0.1% Bovine Serum Albumin, 0.01% Tween-20, 2 mM Dithiolthreitol, 2.5% Dimethyl Sulfoxide. Reactions were stopped by adding 50 mM Tris, pH=7.5, 90 mM EDTA, 0.1% Bovine Serum Albumin, 0.01% Tween-20.
Procedure: To 10 μl of PDK1-4 peptide, 0.5 μl of test compound in dimethyl sulfoxide is added. PDK1 kinase and ATP are mixed. 10 μl of the PDK1 kinase/ATP mix is added to start the reaction. The reaction is allowed to proceed for 3-18 hours. The reactions are stopped by adding 10 μl of the EDTA-containing stop buffer. Beads are mixed with antibody. 25 μl of the bead/antibody mix is added to the stopped reactions. Plates are incubated at room temperature overnight to allow for detection development before being read. The assay is run is a 384-well format. […]

In another experiment the test system is PC-3 cells. The experiment is described as follows: Cell Proliferation Assay (Cell Titer Glo), PC-3 cell line. The class given is cell-based. The method, then:
IV. Cell Proliferation Assay Protocol:
A2780, PC-3, or PC3MM cells were seeded at 1000 cells/well in 100 μL/well (10.000 cells/mL) growth media in 96-well plates. Cells were allowed to adhere to the bottom of plates for 3-5 hours in a 37° C. 5% CO2 incubator. Compounds were dissolved in DMSO and then transferred to the cell plates. The cells were incubated with the compounds for 3 days in a 37° C. 5% CO2 incubator. The growth medium containing the compounds was then removed from the cells and fresh medium was added, followed by 100 μL of Cell Titer Glo assay reagent (Promega). This mixture was shaken for 1 minute and then incubated without shaking for 10 minutes. Activity determinations for the compounds were made by detection on a Trilux Instrument.
V. Cell Proliferation Assay Protocol: PC-3 Cell Line
PC-3 cells were seeded at 1000 cells/well in 100 μL/well (10.000 cells/mL) along with growth media into black-walled, clear bottom 96-well plates. The cells were allowed to adhere to the bottom of the plate for 3-5 hours in a 37° C. 5% CO2 incubator.
Test compounds were diluted to 500× in DMSO. The DMSO solutions of six of the compounds were transferred to the cells in the 96 well round bottom plate, column 2, row B-F. A 1:3 serial dilution of each compound was carried out. The serial dilution comprised adding 20 μL of DMSO to the wells containing the compounds and doing a 1:3 dilution across the plate from columns 2-10. Column 11 contained only DMSO. The serial dilution was carried out using a BioMek 2000 protocol “CP Serial Dilution using 250 μL tips” or “Proliferation Compound” (if using 20 μL tips).
To a 96 deep well block, columns 2-11 rows B-F, was transferred 500 μL of growth medium. Using the FX protocol “HH_CellAssay—2 μL to 500 μL”, 2 μL of compound from each cell of the compound plate was transferred to the corresponding cell in the 96 deep well block containing 500 μL of growth medium. The instrument was programmed to dilute the compound in growth medium and then transfer 100 μL of that mixture to cell plates containing cells. The cell plates, to which test compounds had been added, were incubated for 3 days at 37° C. Following the incubation, the medium was removed and replaced with fresh medium. Cell Titer Glo (100 μL) was added to each well and the plate was shaken for 1 minute and then incubated without shaking for 10 minutes. The plates were then read using a Trilux instrument.

Setting [1] is: Homo sapiens, PC-3, 72 h, PC-3 cells, 3 days incubation, read-out: CP EC50 PC3.
[2] abbreviates: Homo sapiens, PC-3, PC3 cells, read-out: CPEC50 PC3.

Results on 21 compounds are retold here after patent US7932262B2 (Novartis AG, priority 2006, dated 2011).

pEC50, pIC50: −log10 of the molar value. Where two headings read alike, the source gives them in different places.

Take “8-(6-(2-(pyrrolidin-1- yl)ethylamino)pyridin-3-yl)-N-(4- (trifluoromethoxy)phenyl)quinazoin- 2-amine [Compound 394]”: on PDK1 kinase (PDK1 Kinase Alpha Screen Assay), the pIC50 (commonly −log10 of the IC50, conventionally taken in molar units) is more than 5.30. Also, the pEC50 in the experiment with PC-3 cells (Cell Proliferation Assay, PC3, read-out: CPEC50 PC3) is more than 5.30. In the case of `CCN1CCC(Oc2ccc3cnc(Nc4cc(OC)cc(OC)c4)nc3c2)CC1` [Compound 56, (3,5-Dimethoxy-phenyl)-[7-(1-ethyl-piperidin-4-yloxy)-quinazolin-2-yl]-amine], the negative logarithm of the IC50 (pIC50) on PDK1 kinase is more than 5.30. In addition, in the experiment with PC-3 cells (setting [1]), the pEC50 is more than 5.30. Take `CC(C)N1CCC(Oc2ccc3cnc(Nc4ccc(Cl)cc4)nc3c2)CC1` [Compound 57, (4-Chloro-phenyl)-[7-(1-isopropyl-piperidin-4-yloxy)-quinazolin-2-yl]-amine]: the pIC50 at PDK1 kinase is more than 5.30. For the same compound, the pEC50 in the experiment with PC-3 cells (setting [1]) was more than 5.30. For the compound `CC(C)N1CCC(Oc2ccc3cnc(Nc4ccc(F)cc4)nc3c2)CC1` [Compound 60, (4-Fluoro-phenyl)-[7-(1-isopropyl-piperidin-4-yloxy)-quinazolin-2-yl]-amine], the pIC50 at PDK1 kinase was more than 5.30. In the experiment with PC-3 cells (setting [1]), the pEC50 was 5.00 to 5.30. `CC(C)N1CCC(Oc2ccc3cnc(Nc4ccc(N)c(Cl)c4)nc3c2)CC1` [Compound 62, 2-Chloro-N*4*-[7-(1-isopropyl-piperidin-4-yloxy)-quinazolin-2-yl] benzene-1,4-diamine]: the pIC50 on PDK1 kinase was more than 5.30. The pEC50 in the experiment with PC-3 cells (setting [1]) was 5.00 to 5.30. Consider `Nc1cc(C(F)(F)F)c(-c2ccc3cnc(Nc4ccc(S(N)(=O)=O)cc4)nc3c2OC2CCNCC2)cn1` [Compound 69, 4-[7-(6-Amino-4-trifluoromethyl-pyridin-3-yl)-8-(piperidin-4-yloxy)-quinazolin-2-ylamino]-benzenesulfonamide], for which the pIC50 at PDK1 kinase was more than 5.30. Moreover, in the experiment on PC-3 cells (setting [1]), the pEC50 is 5.00 to 5.30. As to `CC(C)N1CCC(Oc2cccc3cnc(Nc4ccc(CC(N)=O)cc4)nc23)CC1` [Compound 74, 2-{4-[8-(1-Isopropyl-piperidin-4-yloxy)-quinazolin-2-ylamino]-phenyl}-acetamide], on PDK1 kinase, the pIC50 was more than 5.30. Moreover, in the experiment on PC-3 cells (setting [1]), the pEC50 was more than 5.30. On to `CC(C)N1CCC(Oc2cccc3cnc(Nc4ccc(NC(=O)N5CCCC5)cc4)nc23)CC1` [Compound 75, Pyrrolidine-1-carboxylic acid {4-[8-(1-isopropyl-piperidin-4-yloxy)-quinazolin-2-ylamino]-phenyl}-amide], for which, on PDK1 kinase, the negative-log IC50 (pIC50) is more than 5.30. The pEC50 in the experiment with PC-3 cells (setting [1]) is more than 5.30. For the compound `CC(C)N1CCC(Oc2cccc3cnc(Nc4cccc(CC(N)=O)c4)nc23)CC1` [Compound 76, 2-{3-[8-(1-Isopropyl-piperidin-4-yloxy)-quinazolin-2-ylamino]-phenyl}-acetamide], at PDK1 kinase, the pIC50 was more than 5.30. Also, the pEC50 in the experiment with PC-3 cells (setting [1]) was more than 5.30. For the compound `CNC(=O)Cc1cccc(NC(=O)Cc2cccc(Nc3ncc4cccc(OC5CCN(C(C)C)CC5)c4n3)c2)c1` [Compound 78, 2-{3-[8-(1-Isopropyl-piperidin-4-yloxy)-quinazolin-2-ylamino]-phenyl}-N-(3-methylcarbamoylmethyl-phenyl)-acetamide], the pIC50 at PDK1 kinase is more than 5.30. Besides, the pEC50 with PC-3 cells (setting [1]) is more than 5.30. For `CNC(=O)Cc1cccc(NC(=O)Cc2cccc(Nc3ncc4cccc(OC5CCN(C(C)C)CC5)c4n3)c2)c1` [Compound 1004, 2-(3-(8-(1-isopropylpiperidin-4-yloxy)quinazolin-2-ylamino)phenyl)-N-(3-(2-(methylamino)-2-oxoethyl)phenyl)acetamide], in the experiment on PC-3 cells (setting [2]), the pEC50 is more than 5.30. `CC(C)NC(=O)Cc1cccc(Nc2ncc3cccc(OC4CCN(C(C)C)CC4)c3n2)c1` [Compound 1005, N-isopropyl-2-(3-(8-(1-isopropylpiperidin-4-yloxy)quinazolin-2-ylamino)phenyl)acetamide]: the pEC50 in the experiment with PC-3 cells (setting [2]) is more than 5.30. Consider `CC(C)N1CCC(Oc2cccc3cnc(Nc4cccc(N5CCOCC5)c4)nc23)CC1` [Compound 1006, 8-(1-isopropylpiperidin-4-yloxy)-N-(3-morpholinophenyl)quinazolin-2-amine], for which the pEC50 in the experiment on PC-3 cells (setting [2]) is 5.00 to 5.30. In the case of `CC(=O)Nc1cccc(Nc2ncc3cccc(OC4CCN(C(C)C)CC4)c3n2)c1` [Compound 1007, N-(3-(8-(1-isopropylpiperidin-4-yloxy)quinazolin-2-ylamino)phenyl)acetamide], in the experiment on PC-3 cells (setting [2]), the pEC50 is more than 5.30.

As for `CNS(=O)(=O)Cc1ccc(Nc2ncc3cccc(OC4CCN(C(C)C)CC4)c3n2)cc1` [Compound 1008, 1-(4-(8-(1-isopropylpiperidin-4-yloxy)quinazolin-2-ylamino)phenyl)-N-methylmethanesulfonamide], the pEC50 with PC-3 cells (setting [2]) is more than 5.30.

Turning to `CC(C)N1CCC(Oc2cccc3cnc(Nc4ccc(F)cc4)nc23)CC1` [Compound 1009, N-(4-fluorophenyl)-8-(1-isopropylpiperidin-4-yloxy)quinazolin-2-amine], the pEC50 in the experiment with PC-3 cells (setting [2]) is 5.00 to 5.30. As for `CC(C)N1CCC(Oc2cccc3cnc(Nc4ccc(Cl)cc4)nc23)CC1` [Compound 1010, N-(4-chlorophenyl)-8-(1-isopropylpiperidin-4-yloxy)quinazolin-2-amine], in the experiment with PC-3 cells (setting [2]), the pEC50 was more than 5.30. Regarding `CC(C)N1CCC(Oc2cccc3cnc(Nc4ccc(C(F)(F)F)cc4)nc23)CC1` [Compound 1011, 8-(1-isopropylpiperidin-4-yloxy)-N-(4-(trifluoromethyl)phenyl)quinazolin-2-amine], the pEC50 in the experiment on PC-3 cells (setting [2]) was more than 5.30.

As to `CC(C)N1CCC(Oc2ccc3cnc(Nc4ccc(N)c(Cl)c4)nc3c2)CC1` [Compound 1013, 3-chloro-N1-(7-(1-isopropylpiperidin-4-yloxy)quinazolin-2-yl)benzene-1,4-diamine], the pEC50 with PC-3 cells (setting [2]) was 5.00 to 5.30. With `CC(=O)Nc1ccc(Nc2ncc3ccc(OC4CCNCC4)cc3n2)cc1C` [Compound 1014, N-(2-methyl-4-(7-(piperidin-4-yloxy)quinazolin-2-ylamino)phenyl)acetamide], the pEC50 with PC-3 cells (setting [2]) is more than 5.30. Regarding `C#Cc1cc(OC2CCN(C(C)C)CC2)c2nc(Nc3ccc(S(N)(=O)=O)cc3)ncc2c1` [Compound 1015, 4-(6-ethynyl-8-(1-isopropylpiperidin-4-yloxy)quinazolin-2-ylamino)benzenesulfonamide], the pEC50 in the experiment on PC-3 cells (setting [2]) is more than 5.30.
